The values that follow come from publication PMC9672040, “Identification of purine biosynthesis as an NADH-sensing pathway to mediate energy stress” (Nature Communications, 2022).

Read-outs that look alike come from different tables or passages of the source.

The test system of one series is T1, EcSTH-LbNOX.
T1 construct: gene sthA; single-chain fusion EcSTH-Flag-LbNOX, three tandem Flag peptides as linker, expressed in HeLa cells, anti-Flag M2 purified; with NADH oxidase (water-forming)
The series can be described thus: thio-NAD+ reduction at […] nm / NADPH depletion at […] nm. The following applies: 50 mM Tris-HCl pH 7.5, 10 μM FAD, 35 °C, EcSTH site. It is filed as biochemical, Escherichia coli.

The target of series [1] is T2, PRPS1 (Homo sapiens, UniProt P60891).
T2 construct: His-tagged, pET-28a, expressed in E. coli BL21, Ni-Sepharose purified
T2 sequence (P60891 2-318): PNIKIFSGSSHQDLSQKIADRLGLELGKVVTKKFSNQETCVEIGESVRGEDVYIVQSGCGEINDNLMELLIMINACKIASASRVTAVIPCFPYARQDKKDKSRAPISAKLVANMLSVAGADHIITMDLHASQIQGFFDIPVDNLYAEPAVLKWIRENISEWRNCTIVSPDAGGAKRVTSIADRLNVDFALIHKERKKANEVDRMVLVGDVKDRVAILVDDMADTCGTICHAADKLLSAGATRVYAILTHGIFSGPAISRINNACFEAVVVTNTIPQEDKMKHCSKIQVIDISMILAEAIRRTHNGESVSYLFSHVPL
Briefly: ATP consumption, Kinase-Glo. It is filed as biochemical. The following applies: 300 µM ATP, 300 µM R-5-P, 5 mM MgCl2, 5 mM Na3PO4, pH 7.5, 37 °C; allosteric effector. For orientation: Kinase-Glo reads ATP consumption through a luciferase reaction.

Series [2] deals with T3, PRPS2 (Homo sapiens, UniProt P11908).
T3 construct: His-tagged, pET-28a, expressed in E. coli BL21, Ni-Sepharose purified; the AlphaFold id for docking (AF-P60891-F1) is that of PRPS1
T3 sequence (P11908 2-318): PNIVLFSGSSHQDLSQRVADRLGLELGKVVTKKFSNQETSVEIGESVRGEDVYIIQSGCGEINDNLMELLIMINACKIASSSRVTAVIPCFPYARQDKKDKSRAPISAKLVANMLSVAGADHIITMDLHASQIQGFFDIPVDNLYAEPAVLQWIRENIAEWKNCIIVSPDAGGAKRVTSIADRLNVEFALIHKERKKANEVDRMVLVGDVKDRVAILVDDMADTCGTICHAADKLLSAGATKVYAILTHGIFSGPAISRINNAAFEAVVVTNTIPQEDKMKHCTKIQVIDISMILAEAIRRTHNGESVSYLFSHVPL
The series can be described thus: biochemical. Also on record: PRPS1/2 activity by ATP consumption, Kinase-Glo luminescence.

The target of series [3] is T2, PRPS1. Briefly: biochemical. Also on record: PRPS1/2 activity by ATP consumption, Kinase-Glo luminescence.
For series [4], the target named is T3, PRPS2. The series can be described thus: ATP consumption, Kinase-Glo. The format is biochemical. To be noted: 300 µM ATP, 300 µM R-5-P, 5 mM MgCl2, 5 mM Na3PO4, pH 7.5, 37 °C; allosteric effector.
The next series relates to T4, HeLa Tet-on EcSTH.
T4 construct: HeLa with inducible Tet-on EcSTH, not induced
The series can be described thus: cells. Further details: Sensitivity of HeLa cells to menadione, proliferation after 48 h. To be noted: Homo sapiens, 48 h, Dox-, read-out: IC50 menadione. The method, then:
From top to bottom: **P < 0.0001, **P < 0.0001, **P < 0.0001, two-way ANOVA. d Effects of EGFP, EcSTH, LbNOX, or EcSTH-LbNOX expression on colony formation in HeLa cells cultured with Dox, as indicated, for 10 days (n = 3 biologically independent samples). From left to right: *P = 0.013, **P = 0.0001, **P = 6.58e-07, two-tailed Student’s t-tests. e The in vivo tumor growth of HeLa cells expressing inducible Tet-on EcSTH or EcSTH-LbNOX (n = 5 biologically independent animals). 2 mg/mL Dox was added in drinking water on day 10 and updated every two days. **P < 0.0001, two-way ANOVA. f Effects of α-KB treatment on proliferation of HeLa^Tet-on EcSTH cells. Cells were counted after treatment with Dox (1 µg/mL) and α-KB (1 or 2 mM) for 48 h (n = 4 biologically independent samples). From left to right: **P = 2.44e-06, **P = 1.85e-06, two-tailed Student’s t-tests. g Effects of inhibitors on proliferation of HeLa^Tet-on EcSTH cells. Cells were pretreated with the indicated inhibitors for 2 h, and cells were counted after treatment with Dox (1 µg/mL) for 48 h (n = 3 biologically independent samples). z-VAD (z-VAD-FMK, 20 µM), NSA (necrosulfonamide, 10 µM), Ferr-1 (Ferrostain-1, 5 µM). […] Cell apoptosis was measured by Flow cytometry after treatment with Dox (1 µg/mL) and α-KB (2 mM) for 24 h (n = 3 biologically independent samples). […]

Another series concerns T5, HeLa Tet-on EcSTH-LbNOX.
T5 construct: HeLa with inducible Tet-on EcSTH-LbNOX, not induced
Briefly: cells. Also on record: Sensitivity of HeLa cells to menadione, proliferation after 48 h. To be noted: Homo sapiens, 48 h, Dox-, read-out: IC50 menadione.

For series [5], the target named is T3, PRPS2. The series can be described thus: SPR (Biacore T200), His-PRPS2 immobilized on CM5 chip. It is filed as binding. The following applies: read-out: dissociation constant.
Substrate in series [6]: NC(=O)C1=CN([C@@H]2O[C@H](COP(=O)(O)OP(=O)(O)OC[C@H]3O[C@@H](n4cnc5c(N)ncnc54)[C@H](O)[C@@H]3O)[C@@H](O)[C@H]2O)C=CC1
Briefly: purified protein. The following applies: 50 mM Tris-HCl pH 7.5, 10 μM FAD, 35 °C.

Substrate in series [7]: NC(=O)C1=CN([C@@H]2O[C@H](COP(=O)(O)OP(=O)(O)OC[C@H]3O[C@@H](n4cnc5c(N)ncnc54)[C@H](OP(=O)(O)O)[C@@H]3O)[C@@H](O)[C@H]2O)C=CC1
Briefly: purified protein. To be noted: 400 µM thio-NAD+, 50 mM Tris-HCl pH 7.5, 10 μM FAD, 35 °C. It is filed as biochemical, Escherichia coli.

Substrate in series [8]: NC(=S)c1ccc[n+]([C@@H]2O[C@H](COP(=O)(O)OP(=O)(O)OC[C@H]3O[C@@H](n4cnc5c(N)ncnc54)[C@H](O)[C@@H]3O)[C@@H](O)[C@H]2O)c1
The series can be described thus: purified protein. The format is biochemical, Escherichia coli. To be noted: 400 µM NADPH, 50 mM Tris-HCl pH 7.5, 10 μM FAD, 35 °C.

As usually defined, the Km is the substrate concentration at which the rate is half of its maximum. Consider `NC(=O)C1=CN([C@@H]2O[C@H](COP(=O)(O)OP(=O)(O)OC[C@H]3O[C@@H](n4cnc5c(N)ncnc54)[C@H](OP(=O)(O)O)[C@@H]3O)[C@@H](O)[C@H]2O)C=CC1` [NADPH], for which the Km in the series on EcSTH-LbNOX (400 µM thio-NAD+) amounted to 194 µM.

Take `NC(=S)c1ccc[n+]([C@@H]2O[C@H](COP(=O)(O)OP(=O)(O)OC[C@H]3O[C@@H](n4cnc5c(N)ncnc54)[C@H](O)[C@@H]3O)[C@@H](O)[C@H]2O)c1` [thio-NAD^+]: the Km with EcSTH-LbNOX (400 µM NADPH) stood at 272 µM.

The term IC50 denotes the midpoint of a concentration-inhibition curve. As for `Nc1nc2c(ncn2[C@@H]2O[C@H](COP(=O)(O)OP(=O)(O)O)[C@@H](O)[C@H]2O)c(=O)[nH]1` [GDP], the “ATP consumption, Kinase-Glo” value on PRPS1 [1] is “NADH and NAD^+ exerted no effect on the suppression of PRPS1 by ADP or GDP”; at PRPS2 [4], “protected PRPS2 against inhibition by ADP, but not against that by GDP”. The IC50 on PRPS2 [2] (read-out: IC50 of GDP (PRPS2)) stood at 251 µM; at PRPS1 [3] (read-out: IC50 of GDP (PRPS1)), 171 µM.

In the case of `CC1=CC(=O)c2ccccc2C1=O` [Menadione], the results for the IC50 with HeLa Tet-on EcSTH and in the series with HeLa Tet-on EcSTH-LbNOX were 27.8 µM and 27.4 µM, respectively.

For the molecule `NC(=O)C1=CN([C@@H]2O[C@H](COP(=O)(O)OP(=O)(O)OC[C@H]3O[C@@H](n4cnc5c(N)ncnc54)[C@H](O)[C@@H]3O)[C@@H](O)[C@H]2O)C=CC1` [NADH], the Kd at PRPS2 [5] was 118 µM.

`Nc1ncnc2c1ncn2[C@@H]1O[C@H](COP(=O)(O)OP(=O)(O)O)[C@@H](O)[C@H]1O` [ADP]: the half-maximal inhibitory concentration (IC50) on PRPS2 [2] (read-out: IC50 of ADP (PRPS2)) turned out to be 77.4 µM; at PRPS1 [3] (read-out: IC50 of ADP (PRPS1)), 41.3 µM.

B1: LbNOX (Levilactobacillus brevis ATCC 367) (protein)
chain: MKVTVVGCTHAGTFAIKQILAEHPDAEVTVYERNDVISFLSCGIALYLGGKVADPQGLFYSSPEELQKLGANVQMNHNVLAIDPDQKTVTVEDLTNHAQTTESYDKLVMTSGSWPIVPKIPGIDSDRVKLCKNWAHAQALIEDAKEAKRITVIGAGYIGAELAEAYSTTGHDVTLIDAMARVMPKYFDADFTDVIEQDYRDHGVQLALGETVESFTDSATGLTIKTDKNSYETDLAILCIGFRPNTDLLKGKVDMAPNGAIITDDYMRSSNPDIFAAGDSAAVHYNPTHQNAYIPLATNAVRQGILVGKNLVKPTVKYMGTQSSSGLALYDRTIVSTGLTLAAAKQQGLNAEQVIVEDNYRPEFMPSTEPVLMSLVFDPDTHRILGGALMSKYDVSQSANTLSVCIQNENTIDDLAMVDMLFQPNFDRPFNYLNILAQAAQAKVAQSVNA
As a reminder, the kcat is the maximal rate divided by the concentration of active sites. In the case of B1, in “purified protein [6]”, the Km worked out at 88.73 µM and the kcat was 836.55 s⁻¹.

B2: EcSTH (Escherichia coli K-12) (protein)
chain: PHSYDYDAIVIGSGPGGEGAAMGLVKQGARVAVIERYQNVGGGCTHWGTIPSKALRHAVSRIIEFNQNPLYSDHSRLLRSSFADILNHADNVINQQTRMRQGFYERNHCEILQGNARFVDEHTLALDCPDGSVETLTAEKFVIACGSRPYHPTDVDFTHPRIYDSDSILSMHHEPRHVLIYGAGVIGCEYASIFRGMDVKVDLINTRDRLLAFLDQEMSDSLSYHFWNSGVVIRHNEEYEKIEGCDDGVIMHLKSGKKLKADCLLYANGRTGNTDSLALQNIGLETDSRGQLKVNSMYQTAQPHVYAVGDVIGYPSLASAAYDQGRIAAQALVKGEATAHLIEDIPTGIYTIPEISSVGKTEQQLTAMKVPYEVGRAQFKHLARAQIVGMNVGTLKILFHRETKEILGIHCFGERAAEIIHIGQAIMEQKGGGNTIEYFVNTTFNYPTMAEAYRVAALNGLNRLF
notes: C-terminal Flag tag (EcSTH-Flag), human-codon cDNA, expressed in HeLa cells, anti-Flag M2 purified
B2: in “purified protein [7]”, the Km is 137.1 µM and the turnover number (kcat) turned out to be 81.73 s⁻¹. In the series “purified protein [8]”, the Michaelis-Menten constant (Km) turned out to be 242.8 µM and the catalytic constant (kcat) worked out at 82.73 s⁻¹.
